Values of other authors as cited in patent publication US20150147378A1, “COPOLYMER-XEROGEL NANOCOMPOSITES USEFUL FOR DRUG DELIVERY” (RUTGERS, THE STATE UNIVERSITY OF NEW JERSY, priority 2008, published 2015).

octanol/water partition coefficient, log P: 2.72
SMILES: CO[C@H]1/C=C/O[C@@]2(C)Oc3c(C)c(O)c4c(O)c(c(/C=N/N5CCN(C)CC5)c(O)c4c3C2=O)NC(=O)/C(C)=C\C=C\[C@H](C)[C@H](O)[C@@H](C)[C@@H](O)[C@@H](C)[C@H](OC(C)=O)[C@@H]1C [rifampicin]
